Experimental findings from patent US9591852B2, “Biofilm disruptive compositions” (McNeil-PPC, Inc., priority 2009, dated 2017) are described below.

Where two headings read alike, the source gives them in different places.

This experiment has as its system 48-hour salivary biofilm. As to the kind of experiment: Biofilm disruption screening assay: 48-hour salivary biofilm on polystyrene peg plate, ATP bioluminescence of bacteria remaining. Format: cell-based. To be noted: for log RLU compound: treated twenty minutes, N=8. As to the method:
(§1) A 48-hour salivary biofilm was grown on a polystyrene peg plate substrate (96 pegs, N=8 per test group). The pegs were subsequently treated for twenty minutes with each of the long chain alcohols formulations described above, as well as the negative control. After treatment, viable bacteria remaining on the substrate were removed by sonication using a Ultrasonic processor XL by Misonix (Farmingdale, N.Y.), lysed with Celsis Luminex (Celsis Rapid Detection Rapiscreen (Celsis International PLC, Chicago)) and ATP from the bacteria were measured using a bioluminescence marker Celsis LuminATE (Celsis Rapid Detection Rapiscreen (Celsis International PLC, Chicago)). Data was reported in log RLU (relative light units), where decreasing log RLUs indicates fewer bacteria remaining on the substrate and in M-factor units where M-factor is the difference between the log RLU values of the compound tested and the negative control.
as §1, with “marker.” for “marker”
To determine the concentration dependence of biofilm disruptor activity, a series of formulations was prepared with cis-2-nonen-1-ol concentration ranging from 0.0005% to 0.1%. These formulations were tested against the negative control in the biofilm disruption screening assay described in Examples 1 and 2. Data was reported in log RLU (relative light units) where decreasing log RLUs indicates fewer bacteria remaining on the substrate and in M-factor units where M-factor is the difference between the log RLU values of the compound tested and the negative control. […]

Where [1] appears, read: 20 min, aldehyde 0.05% (w/v), twenty minutes, difference between log RLU of compound and negative control, read-out: M-factor.
The mark [2] stands for this setting: unsaturated long chain aldehyde 0.05% (w/v) in water/ethanol/Pluronic F-127.
Setting [3] is: 20 min, alcohol 0.05% (w/v), twenty minutes, difference between log RLU of compound and negative control, read-out: M-factor.
The mark [4] stands for this setting: unsaturated long chain alcohol 0.05% (w/v) in water/ethanol/Pluronic F-127, decreasing log RLU = fewer bacteria remaining.

Turning to `CCCCC/C=C/C=O` [trans-2-octenal], under setting [1], the log reduction at 0.05 % was 0.32. In addition, the “log RLU compound” value under setting [2] was determined as 5.26 log RLU.
As to `CCC/C=C\CCO` [cis-3-hepten-1-ol], the log reduction at 0.05 % under setting [3] was found to be 0.25. The “log RLU compound” value under setting [4] is recorded as 5.07 log RLU.
In the same order, the values of `CC/C=C\CCO` [cis-3-hexen-1-ol] are 0.06 and 5.22 log RLU.
In the same order, the values of `CCCCC/C=C\CCO` [cis-3-nonen-1-ol] are 0.76 and 4.56 log RLU.
As for `CCCCCCCCC/C=C/CO` [trans-2-dodecen-1-ol], the log reduction at 0.05 % under setting [3] was determined as 0.88. Also, the “log RLU compound” value under setting [4] is 4.44 log RLU.
`CCCCCC/C=C\CO` [cis-2-nonen-1-ol]: the log reduction at 0.05 % reads like this: under setting [3], 0.76; (20 min, formulation B, cis-2-nonen-1-ol 0.05% (w/v), vs negative control log RLU 5.63, read-out: M-factor) 0.82. For the same compound, the log reduction at 0.1 % (20 min, formulation A, cis-2-nonen-1-ol 0.1% (w/v), vs negative control log RLU 5.63, read-out: M-factor) was 0.82. Also, the log reduction at 0.025 % (20 min, formulation C, cis-2-nonen-1-ol 0.025% (w/v), vs negative control log RLU 5.63, read-out: M-factor) was 0.35. Under “20 min, formulation D, cis-2-nonen-1-ol 0.01% (w/v), vs negative control log RLU 5.63, read-out: M-factor”, the log reduction at 0.01 % worked out at 0.04. For the same compound, the log reduction at 0.005 % (20 min, formulation E, cis-2-nonen-1-ol 0.005% (w/v), vs negative control log RLU 5.63, read-out: M-factor) is -0.06. Moreover, under “20 min, formulation F, cis-2-nonen-1-ol 0.001% (w/v), vs negative control log RLU 5.63, read-out: M-factor”, the log reduction at 0.001 % was -0.07. The log reduction at 0.0005 % (20 min, formulation G, cis-2-nonen-1-ol 0.0005% (w/v), vs negative control log RLU 5.63, read-out: M-factor) was -0.09. Besides, the “log RLU” value reads like this: (formulation A, cis-2-nonen-1-ol 0.1% (w/v)) 4.81 log RLU; (formulation B, cis-2-nonen-1-ol 0.05% (w/v)) 4.82 log RLU; (formulation C, cis-2-nonen-1-ol 0.025% (w/v)) 5.28 log RLU; (formulation D, cis-2-nonen-1-ol 0.01% (w/v)) 5.59 log RLU; (formulation E, cis-2-nonen-1-ol 0.005% (w/v)) 5.69 log RLU; (formulation F, cis-2-nonen-1-ol 0.001% (w/v)) 5.70 log RLU. Besides, under “formulation G, cis-2-nonen-1-ol 0.0005% (w/v)”, the “log RLU” value was determined as 5.72 log RLU. The “log RLU compound” value under setting [4] was 4.57 log RLU.
Turning to `CCCCCCCC/C=C/CO` [trans-2-undecen-1-ol], the log reduction at 0.05 % under setting [3] is 0.56. Also, the “log RLU compound” value under setting [4] is on record as 4.72 log RLU.
As to `CCCCC/C=C\CCCO` [cis-4-decen-1-ol], the log reduction at 0.05 % under setting [3] stood at 0.62. Further, the “log RLU compound” value under setting [4] is listed as 4.71 log RLU.
In the same order, the values of `CC/C=C\CCCCO` [cis-5-octen-1-ol] are 0.31 and 5.01 log RLU.
Turning to `C=CCCCCCCCCO` [9-decen-1-ol], under setting [3], the log reduction at 0.05 % is 0.97. Moreover, the “log RLU compound” value under setting [4] is 4.35 log RLU.
In the same order, the values of `CCCCCC/C=C/CO` [trans-2-nonen-1-ol] are 0.45 and 4.83 log RLU.
In the same order, the values of `C=CC(O)CCCCC` (stereo not drawn) [1-octen-3-ol] are 0.33 and 4.99 log RLU.
`CCCCCCC/C=C/CO` [trans-2-decen-1-ol]: the log reduction at 0.05 % under setting [3] amounted to 1.45. For the same compound, the “log RLU compound” value under setting [4] is listed as 4.13 log RLU.
Take `CCC/C=C/C=O` [trans-2-hexenal]: the log reduction at 0.05 % under setting [1] amounted to 0.19. The “log RLU compound” value under setting [2] is 5.39 log RLU.
Regarding `C=CC(O)CCCCCCC` (stereo not drawn) [1-decen-3-ol], under setting [3], the log reduction at 0.05 % is 0.86. The “log RLU compound” value under setting [4] came out at 4.46 log RLU.
For the compound `CCCCCCCCC/C=C/C=O` [trans-2-dodecenal], the log reduction at 0.05 % under setting [1] was determined as 1. Also, under setting [2], the “log RLU compound” value is 4.58 log RLU.
For the compound `CCCC/C=C/C=O` [trans-2-heptenal], the log reduction at 0.05 % under setting [1] was 0.06. In addition, under setting [2], the “log RLU compound” value stood at 5.52 log RLU.
With `CCCCC/C=C/CO` [trans-2-octen-1-ol], the log reduction at 0.05 % under setting [3] is 0.69. Besides, under setting [4], the “log RLU compound” value is reported as 4.89 log RLU.
The like results for `CC/C=C\CCCCCO` [cis-6-nonen-1-ol] were, in that order, 0.72 and 4.60 log RLU.
In the same order, the values of `CCC/C=C\CO` [cis-2-hexen-1-ol] are 0.11 and 5.21 log RLU.
In the same order, the values of `CCC/C=C/CO` [trans-2-hexen-1-ol] are 0.12 and 5.20 log RLU.
Consider `CCCCC/C=C\CCC=O` [cis-4-decenal], for which the log reduction at 0.05 % under setting [1] was found to be 0.99. Moreover, under setting [2], the “log RLU compound” value is reported as 4.59 log RLU.
As for `CCCCCCCC/C=C/C=O` [trans-2-undecenal], under setting [1], the log reduction at 0.05 % turned out to be 0.83. The “log RLU compound” value under setting [2] was found to be 4.49 log RLU.
The like results for `CC(C)=CCCC(C)C=O` (stereo not drawn) [2,6-dimethyl-5-hepten-1-al] were, in that order, 0.21 and 5.07 log RLU.
The like results for `CC/C=C\CCCCC=O` [cis-6-nonenal] were, in that order, 0.44 and 4.84 log RLU.
The like results for `CC/C=C\CCC=O` [cis-4-hepten-1-al] were, in that order, -0.04 and 5.14 log RLU.
In the case of `CC/C=C\CCCCCC=O` [cis-7-decenal], the log reduction at 0.05 % under setting [1] is 0.33. In addition, the “log RLU compound” value under setting [2] is on record as 5.25 log RLU.
In the same order, the values of `CCCCCC/C=C/C=O` [trans-2-nonenal] are 0.92 and 4.66 log RLU.
Turning to `CCCCCCC/C=C/C=O` [trans-2-decenal], under setting [1], the log reduction at 0.05 % was determined as 0.95. Besides, the “log RLU compound” value under setting [2] amounted to 4.63 log RLU.
